Results taken from ChEMBL document CHEMBL3091298, “Bis-phosphonium salts of pyridoxine: the relationship between structure and antibacterial activity” (Bioorg Med Chem, 2013).
≈ marks a conversion by molar mass, not a printed value.

How the values were obtained:
[1] = tested on: Staphylococcus aureus; test: Antibacterial activity against Staphylococcus aureus after 18 to 24 hrs; type: functional
[2] = tested on: Staphylococcus epidermidis; test: Antibacterial activity against Staphylococcus epidermidis after 18 to 24 hrs; type: functional
[3] = tested on: Proteus sp.; test: Antibacterial activity against Proteus sp. after 18 to 24 hrs; type: functional; details: Proteus sp. (in: enterobacteria)
[4] = tested on: Klebsiella pneumoniae; test: Antibacterial activity against Klebsiella pneumoniae after 18 to 24 hrs; type: functional
[5] = Cytotoxicity against HEK293 cells after 72 hrs by MTT assay; type: cell-based; details: human, HEK293 cells
[6] = Genotoxicity in uvrA-deficient Escherichia coli assessed as survival at 100 ug/ml after 6 hrs by DNA-repair test; type: toxicity, organism-based; details: read-out: Survival
[7] = Genotoxicity in polA-deficient Escherichia coli assessed as survival at 1 ug/ml after 6 hrs by DNA-repair test; type: toxicity, organism-based; details: read-out: Survival
[8] = Genotoxicity in polA-deficient Escherichia coli assessed as survival at 10 ug/ml after 6 hrs by DNA-repair test; type: toxicity, organism-based; details: read-out: Survival
[9] = Genotoxicity in polA-deficient Escherichia coli assessed as survival at 100 ug/ml after 6 hrs by DNA-repair test; type: toxicity, organism-based; details: read-out: Survival
[10] = tested on: Salmonella typhimurium; test: Mutagenic activity in Salmonella typhimurium TA100 assessed as increase in number of revertants at 10 ug/ml by Ames test relative to solvent control; type: toxicity, organism-based; details: salmonella enterica subsp. enterica serovar typhimurium
[11] = Genotoxicity in uvrA-deficient Escherichia coli assessed as survival at 1 ug/ml after 6 hrs by DNA-repair test; type: toxicity, organism-based; details: read-out: Survival
[12] = Genotoxicity in recA-deficient Escherichia coli assessed as survival at 1 ug/ml after 6 hrs by DNA-repair test; type: toxicity, organism-based; details: read-out: Survival
[13] = Genotoxicity in uvrA-deficient Escherichia coli assessed as survival at 10 ug/ml after 6 hrs by DNA-repair test; type: toxicity, organism-based; details: read-out: Survival
[14] = tested on: Salmonella typhimurium; test: Mutagenic activity in Salmonella typhimurium TA100 assessed as increase in number of revertants at 100 ug/ml by Ames test relative to solvent control; type: toxicity, organism-based; details: salmonella enterica subsp. enterica serovar typhimurium
[15] = tested on: Salmonella typhimurium; test: Mutagenic activity in Salmonella typhimurium TA100 assessed as increase in number of revertants at 1 ug/ml by Ames test relative to solvent control; type: toxicity, organism-based; details: salmonella enterica subsp. enterica serovar typhimurium
[16] = Genotoxicity in recA-deficient Escherichia coli assessed as survival at 100 ug/ml after 6 hrs by DNA-repair test; type: toxicity, organism-based; details: read-out: Survival
[17] = Genotoxicity in recA-deficient Escherichia coli assessed as survival at 10 ug/ml after 6 hrs by DNA-repair test; type: toxicity, organism-based; details: read-out: Survival

Row | Structure (SMILES) | MIC [1] [µg/mL] | MIC [2] [µg/mL] | MIC [3] [µg/mL] | MIC [4] [µg/mL] | CC50 at 72 h [5] [µg/mL] | other results
1 | Cc1nc(C[P+](c2ccccc2)(c2ccccc2)c2ccccc2)c(C[P+](c2ccccc2)(c2ccccc2)c2ccccc2)c2c1OC(C)(C)OC2.O=[N+]([O-])[O-].O=[N+]([O-])[O-] | 100 | 100 | > 1000 | 1000 |  | 
2 | Cc1nc(C[P+](c2ccccc2)(c2ccccc2)c2ccccc2)c(C[P+](c2ccccc2)(c2ccccc2)c2ccccc2)c2c1OC(C)(C)OC2.[I-].[I-] | 10 | 10 | > 1000 | > 1000 |  | 
3 | Cc1nc(C[P+](c2ccccc2)(c2ccccc2)c2ccccc2)c(CO)c2c1OC(C)(C)OC2.[Br-] | 10 | 10 | > 1000 | > 1000 |  | 
4 | CCCC1OCc2c(C[P+](c3ccc(C)cc3)(c3ccc(C)cc3)c3ccc(C)cc3)c(C[P+](c3ccc(C)cc3)(c3ccc(C)cc3)c3ccc(C)cc3)nc(C)c2O1.[Cl-].[Cl-] (stereo not given) | 2.5 | 2.5 | 1000 | 1000 | 1 | 
5 | CCC1OCc2c(C[P+](c3ccccc3)(c3ccccc3)c3ccccc3)c(C[P+](c3ccccc3)(c3ccccc3)c3ccccc3)nc(C)c2O1.[Cl-].[Cl-] (stereo not given) | 10 | 10 | > 1000 | > 1000 | 4 | 
6 | Cc1nc(C[P+](c2ccccc2)(c2ccccc2)c2ccccc2)c(C[P+](c2ccccc2)(c2ccccc2)c2ccccc2)c2c1OC(C(C)C)OC2.[Cl-].[Cl-] (stereo not given) | 10 | 5 | > 1000 | > 1000 | 2.57 | 
7 | CCCCC1OCc2c(C[P+](c3ccccc3)(c3ccccc3)c3ccccc3)c(C[P+](c3ccccc3)(c3ccccc3)c3ccccc3)nc(C)c2O1.[Cl-].[Cl-] (stereo not given) | 5 | 10 | > 1000 | 1000 | 2 | 
8 | CCCCCC1OCc2c(C[P+](c3ccccc3)(c3ccccc3)c3ccccc3)c(C[P+](c3ccccc3)(c3ccccc3)c3ccccc3)nc(C)c2O1.[Cl-].[Cl-] (stereo not given) | 5 | 5 | > 1000 | 1000 | 1 | 
9 | CCCCCCCC1OCc2c(C[P+](c3ccccc3)(c3ccccc3)c3ccccc3)c(C[P+](c3ccccc3)(c3ccccc3)c3ccccc3)nc(C)c2O1.[Cl-].[Cl-] (stereo not given) | 10 | 10 | > 1000 | 1000 | 0.5 | 
10 | Cc1nc(C[P+](c2ccccc2)(c2ccccc2)c2ccccc2)c(C[P+](c2ccccc2)(c2ccccc2)c2ccccc2)c2c1OC(C)OC2.[Cl-].[Cl-] (stereo not given) | 12.5 | 10 | > 1000 | > 1000 | 33.9 | 
11 | CCCC[P+](CCCC)(CCCC)Cc1nc(C)c2c(c1C[P+](CCCC)(CCCC)CCCC)COC(C)(C)O2.[Cl-].[Cl-] | 1.25 | 1.25 | > 1000 | > 1000 | 200 | viability at 6 h, 100 ug/ml [6]: 66.1%; viability at 6 h, 1 ug/ml [7]: 112%; viability at 6 h, 10 ug/ml [8]: 118%; viability at 6 h, 100 ug/ml [9]: 57.8%; Ratio [10]: 1.21; viability at 6 h, 1 ug/ml [11]: 109%; viability at 6 h, 1 ug/ml [12]: 88.6%; viability at 6 h, 10 ug/ml [13]: 115%; Ratio [14]: 1.04; Ratio [15]: 0.82; viability at 6 h, 100 ug/ml [16]: 77.8%; viability at 6 h, 10 ug/ml [17]: 82.9%
12 | Cc1ccc([P+](Cc2nc(C)c3c(c2C[P+](c2ccc(C)cc2)(c2ccc(C)cc2)c2ccc(C)cc2)COC(C)(C)O3)(c2ccc(C)cc2)c2ccc(C)cc2)cc1.[Cl-].[Cl-] | 1 | 1 | > 1000 | > 1000 | 29.5 | 
13 | Cc1cccc([P+](Cc2nc(C)c3c(c2C[P+](c2cccc(C)c2)(c2cccc(C)c2)c2cccc(C)c2)COC(C)(C)O3)(c2cccc(C)c2)c2cccc(C)c2)c1.[Cl-].[Cl-] | 1.25 | 1.25 | > 1000 | 1000 | 13 | 
14 | Cc1nc(C[P+](c2cccs2)(c2cccs2)c2cccs2)c(C[P+](c2cccs2)(c2cccs2)c2cccs2)c2c1OC(C)(C)OC2.[Cl-].[Cl-] | 100 | 100 | > 1000 | > 1000 |  | 
15 | Cc1nc(C[P+](c2ccc(F)cc2)(c2ccc(F)cc2)c2ccc(F)cc2)c(C[P+](c2ccc(F)cc2)(c2ccc(F)cc2)c2ccc(F)cc2)c2c1OC(C)(C)OC2.[Cl-].[Cl-] | 50 | 50 | > 1000 | > 1000 |  | 
16 | Cc1nc2c(c3c1OC(C)(C)OC3)C[P+](c1ccccc1)(c1ccccc1)CC[P+](c1ccccc1)(c1ccccc1)C2.[Cl-].[Cl-] | 125 | 100 | > 1000 | > 1000 |  | 
17 | CCCC[P+](CCCC)(CCCC)Cc1nc(C)c(O)c(CO)c1C[P+](CCCC)(CCCC)CCCC.Cl.[Cl-].[Cl-] | 1000 | 1000 | > 1000 | > 1000 |  | 
18 | Cc1ccc([P+](Cc2nc(C)c(O)c(CO)c2C[P+](c2ccc(C)cc2)(c2ccc(C)cc2)c2ccc(C)cc2)(c2ccc(C)cc2)c2ccc(C)cc2)cc1.Cl.[Cl-].[Cl-] | > 1000 | > 1000 | > 1000 | > 1000 |  | 
19 | Cc1cccc([P+](Cc2nc(C)c(O)c(CO)c2C[P+](c2cccc(C)c2)(c2cccc(C)c2)c2cccc(C)c2)(c2cccc(C)c2)c2cccc(C)c2)c1.Cl.[Cl-].[Cl-] | 12.5 | 12.5 | > 1000 | > 1000 |  | 
20 | Cc1nc(C[P+](c2cccs2)(c2cccs2)c2cccs2)c(C[P+](c2cccs2)(c2cccs2)c2cccs2)c(CO)c1O.Cl.[Cl-].[Cl-] | 1000 | > 1000 | > 1000 | > 1000 |  | 
21 | Cc1nc(C[P+](c2ccc(F)cc2)(c2ccc(F)cc2)c2ccc(F)cc2)c(C[P+](c2ccc(F)cc2)(c2ccc(F)cc2)c2ccc(F)cc2)c(CO)c1O.Cl.[Cl-].[Cl-] | 1000 | 1000 | > 1000 | > 1000 |  | 
22 | Cc1nc2c(c(CO)c1O)C[P+](c1ccccc1)(c1ccccc1)CC[P+](c1ccccc1)(c1ccccc1)C2.Cl.[Cl-].[Cl-] | 500 | 500 | > 1000 | > 1000 |  | 
23 | CN[C@H](CC(C)C)C(=O)N[C@H]1C(=O)N[C@@H](CC(N)=O)C(=O)N[C@H]2C(=O)N[C@H]3C(=O)N[C@H](C(=O)N[C@H](C(=O)O)c4cc(O)cc(O)c4-c4cc3ccc4O)[C@H](O)c3ccc(c(Cl)c3)Oc3cc2cc(c3O[C@@H]2O[C@H](CO)[C@@H](O)[C@H](O)[C@H]2O[C@H]2C[C@](C)(N)[C@H](O)[C@H](C)O2)Oc2ccc(cc2Cl)[C@H]1O [VANCOMYCIN] | 2.5 (≈ 1.73 µM) | 2.5 (≈ 1.73 µM) | > 1000 | > 1000 | > 1000 | 
